Source: the OligoGym collection
After the bases stand the sugars from the 5' end (letter, count) and the backbone: PS all phosphorothioate, else s phosphorothioate and o phosphodiester by linkage. Methylation of C is not given here. l = locked nucleic acid (LNA); d = 2'-deoxy (DNA)

Target: SNHG14
Settings: ASO

TATTGATTCAATTCCCT (sugars ldddlddddddllldll, PS)
target mRNA inhibition (Human Neuronal Cell, 7.5 µM): 10%

CAACATTATTAACCACCTTA (sugars l1 d13 l3 d1 l2, PS)
target mRNA inhibition (Human Neuronal Cell, 7.5 µM): 47%

GTTTATACCCTTTCCAA (sugars l3 d11 l3, PS)
target mRNA inhibition (Human Neuronal Cell, 0.2 µM): 57%
target mRNA inhibition (Human Neuronal Cell, 1 µM): 63%

CCTACATCTCATACTTG (sugars l3 d12 l2, PS)
target mRNA inhibition (Mouse Primary Neuronal Cell, 0.005 µM): 96.1%

TTTTTTCTTACTATCTTCAA (sugars lldlldlddddddddlddll, PS)
target mRNA inhibition (Human Neuronal Cell, 7.5 µM): 58%

AGTTCTACTATACTTTC (sugars l3 d10 l1 d1 l2, PS)
target mRNA inhibition (Human Neuronal Cell, 7.5 µM): 59%

TAAAATTATTTATACACCAT (sugars lddlddlddddddlldllll, PS)
target mRNA inhibition (Human Neuronal Cell, 7.5 µM): 2%

CTGTATACACCATCCCA (sugars ldldlddddddddldll, PS)
target mRNA inhibition (Human Neuronal Cell, 7.5 µM): 62%

TTATAGCCATTCTATCT (sugars l4 d7 l1 d3 l2, PS)
target mRNA inhibition (Human Neuronal Cell, 7.5 µM): 44%

AGTTCTACTATACTTTCC (sugars l2 d14 l2, PS)
target mRNA inhibition (Human Neuronal Cell, 7.5 µM): 14%

TTCTGTATACACCATCC (sugars l2 d11 l1 d1 l2, PS)
target mRNA inhibition (Human Neuronal Cell, 7.5 µM): 56%

AGCAACATTATTAACCACC (sugars ldddddddddddldlddll, PS)
target mRNA inhibition (Human Neuronal Cell, 7.5 µM): 26%

TTGTCTCTAATCCTATT (sugars l2 d11 l4, PS)
target mRNA inhibition (Human Neuronal Cell, 0.2 µM): 24%
target mRNA inhibition (Human Neuronal Cell, 1 µM): 52%

GAATTCTTTATTCCTCC (sugars l2 d11 l4, PS)
target mRNA inhibition (Human Neuronal Cell, 0.2 µM): 45%
target mRNA inhibition (Human Neuronal Cell, 1 µM): 41%

GCAACATTATTAACCACCT (sugars ldldldddddddlddddll, PS)
target mRNA inhibition (Human Neuronal Cell, 7.5 µM): 52%

ATATTGATTCAATTCCC (sugars lldddddddddldldll, PS)
target mRNA inhibition (Human Neuronal Cell, 7.5 µM): 60%

AGCATTCAACCCTAAT (sugars l4 d10 l2, PS)
target mRNA inhibition (Human Neuronal Cell, 0.2 µM): 52%
target mRNA inhibition (Human Neuronal Cell, 1 µM): 60%

CAGTTTAAATTCACAC (sugars l3 d10 l3, PS)
target mRNA inhibition (Human Neuronal Cell, 0.2 µM): 34%
target mRNA inhibition (Human Neuronal Cell, 1 µM): 46%

CAACTCTATGACTACC (sugars l2 d10 l4, PS)
target mRNA inhibition (Human Neuronal Cell, 0.2 µM): 46%
target mRNA inhibition (Human Neuronal Cell, 1 µM): 36%

TGAAAATCTCAACTACCAT (sugars l4 d12 l3, PS)
target mRNA inhibition (Human Neuronal Cell, 7.5 µM): 49%

CTGTACACAATCAACA (sugars l4 d10 l2, PS)
target mRNA inhibition (Human Neuronal Cell, 0.2 µM): 54%
target mRNA inhibition (Human Neuronal Cell, 1 µM): 63%

TGAAAATCTCAACTACCAT (sugars llldllddddddlddddll, PS)
target mRNA inhibition (Human Neuronal Cell, 7.5 µM): 55%

TGAAAATCTCAACTACCAT (sugars lddddlddddddldlldll, PS)
target mRNA inhibition (Human Neuronal Cell, 7.5 µM): 42%

TACTCTGCAATACACCA (sugars l1 d13 l3, PS)
target mRNA inhibition (Human Neuronal Cell, 7.5 µM): 60%

CTTTCCATTTATTTCCATTT (sugars ldddddddddddddldldll, PS)
target mRNA inhibition (Human Neuronal Cell, 7.5 µM): 47%

AATTATTTATACACCATCAT (sugars lldldlddddddddllldll, PS)
target mRNA inhibition (Human Neuronal Cell, 7.5 µM): 59%

TCCTATATTCTCTTAAA (sugars l4 d11 l2, PS)
target mRNA inhibition (Human Neuronal Cell, 0.2 µM): 47%
target mRNA inhibition (Human Neuronal Cell, 1 µM): 66%

TTACACTTAATTATACTT (sugars l3 d12 l3, PS)
target mRNA inhibition (Human Neuronal Cell, 0.2 µM): 14%
target mRNA inhibition (Human Neuronal Cell, 1 µM): 22%

TTCCTCTGCTTATAACT (sugars l3 d12 l2, PS)
target mRNA inhibition (Human Neuronal Cell, 0.2 µM): 50%
target mRNA inhibition (Human Neuronal Cell, 1 µM): 61%

TAAAATTATTTATACACCA (sugars ldlldldddddddllllll, PS)
target mRNA inhibition (Human Neuronal Cell, 7.5 µM): 39%

CTTAGACTTCACCTTTC (sugars l2 d11 l4, PS)
target mRNA inhibition (Human Neuronal Cell, 0.2 µM): 49%
target mRNA inhibition (Human Neuronal Cell, 1 µM): 41%

TGTCATCTAACTTCTTA (sugars l4 d11 l2, PS)
target mRNA inhibition (Human Neuronal Cell, 0.2 µM): 45%
target mRNA inhibition (Human Neuronal Cell, 1 µM): 38%

AAACTGTACACCTACT (sugars l2 d10 l4, PS)
target mRNA inhibition (Human Neuronal Cell, 0.2 µM): 31%
target mRNA inhibition (Human Neuronal Cell, 1 µM): 44%

CTGTATACACCATCCCA (sugars l1 d1 l1 d12 l2, PS)
target mRNA inhibition (Human Neuronal Cell, 7.5 µM): 48%

TTCTGTATACACCATCC (sugars l1 d13 l3, PS)
target mRNA inhibition (Human Neuronal Cell, 7.5 µM): 59%

TGAAAATCTCAACTACCAT (sugars ldldldddddddldddlll, PS)
target mRNA inhibition (Human Neuronal Cell, 7.5 µM): 50%

AGCAACATTATTAACCAC (sugars l5 d7 l1 d3 l2, PS)
target mRNA inhibition (Human Neuronal Cell, 7.5 µM): 47%

CTCCAACATAGATCCTC (sugars l3 d11 l3, PS)
target mRNA inhibition (Human Neuronal Cell, 0.2 µM): 52%
target mRNA inhibition (Human Neuronal Cell, 1 µM): 60%

GATCATTCTCAACAATT (sugars l2 d1 l2 d6 l6, PS)
target mRNA inhibition (Human Neuronal Cell, 7.5 µM): 10%

GAAAATCTCAACTACCATT (sugars ldllddddddddldldlll, PS)
target mRNA inhibition (Human Neuronal Cell, 7.5 µM): 57%

CCTATGTTAATACTTT (sugars l4 d10 l2, PS)
target mRNA inhibition (Human Neuronal Cell, 0.2 µM): 25%
target mRNA inhibition (Human Neuronal Cell, 1 µM): 29%

ATCATTCTCAACAATTA (sugars l5 d6 l2 d2 l2, PS)
target mRNA inhibition (Human Neuronal Cell, 7.5 µM): 31%

AAAATCTCAACTACCATTTT (sugars lddllldddddddldldlll, PS)
target mRNA inhibition (Human Neuronal Cell, 7.5 µM): 36%

CAACATTATTAACCACCTTA (sugars ldlldddddddddddlddll, PS)
target mRNA inhibition (Human Neuronal Cell, 7.5 µM): 57%

ATTGATTCAATTCCCTT (sugars l3 d8 l3 d1 l2, PS)
target mRNA inhibition (Human Neuronal Cell, 7.5 µM): 51%

AGTTCTACTATACTTTCC (sugars l1 d1 l1 d13 l2, PS)
target mRNA inhibition (Human Neuronal Cell, 7.5 µM): 40%

TGTTTATACCCTTTCCA (sugars l3 d12 l2, PS)
target mRNA inhibition (Human Neuronal Cell, 0.2 µM): 35%
target mRNA inhibition (Human Neuronal Cell, 1 µM): 50%
